Measured values reported in patent US9321770B2, “Crystals of pyrroloquinolinequinone sodium salts” (MITSUBISHI GAS CHEMICAL COMPANY, INC., priority 2009, dated 2016).
Structures can show the parent of a compound that is named as a salt.

Assay: Thermal analysis: thermogravimetry (TG) and differential thermal analysis (DSC)
Type: physicochemical
Settings: under air flow; for thermal stability of the solids (thermal analysis): temperature increased at 10° C./minute
Procedure: The obtained solids were subjected to thermogravimetry (TG) and differential thermal analysis (DSC) using Thermo plus EVO TG8120 manufactured by Rigaku Corporation. The temperature was increased under air flow at a rate of 10° C./minute.

SMILES | temperature from which reduction in the weight was observed (10° C./minute) | thermal stability of the solids (thermal analysis) (disodium salt) | temperature up to which there was no change (except evaporation of water at about 100° C.) (10° C./minute) | thermal stability of the solids (thermal analysis) (trisodium salt)
O=C(O)c1cc(C(=O)O)c2c(n1)C(=O)C(=O)c1cc(C(=O)O)[nH]c1-2 [Comparative Example 1, PQQ disodium salt] | about 30 °C | unstable |  | 
O=C(O)c1cc(C(=O)O)c2c(n1)C(=O)C(=O)c1cc(C(=O)O)[nH]c1-2 [Comparative Example 2, PQQ disodium salt] |  | low thermal stability |  | 
O=C(O)c1cc(C(=O)O)c2c(n1)C(=O)C(=O)c1cc(C(=O)O)[nH]c1-2 [Example 2, pyrroloquinoline quinone disodium salt] |  | very stable | 270 °C | 
O=C(O)c1cc(C(=O)O)c2c(n1)C(=O)C(=O)c1cc(C(=O)O)[nH]c1-2 [Example 4, pyrroloquinoline quinone trisodium salt] |  |  |  | very high thermal stability
